Results from ChEMBL document CHEMBL1201861, “Genomics of Drug Sensitity in Cancer screening data, Wellcome Trust Sanger Institute”.
“And” between values parts separate entries of the source, which are not always exact repeats. Equal values may be shown once. Where a SMILES comes first, the peptide text is derived from it. The star is where a group is joined. Cbz = O=C(OCc1ccccc1)*

Tests used:
Assay in all cases: cells
COLO-829 = type: functional, cell-based, Homo sapiens
Description: SANGER: Inhibition of human COLO-829 cell growth in a cell viability assay.

D-263MG = type: functional, cell-based, Homo sapiens
Description: SANGER: Inhibition of human D-263MG cell growth in a cell viability assay.

DU-4475 = type: functional, cell-based, Homo sapiens
Description: SANGER: Inhibition of human DU-4475 cell growth in a cell viability assay.

ES5 = type: functional, cell-based, Homo sapiens;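 also: growth inhibition of human ES5 cells, read out by a cell viability assay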
Description: SANGER: Inhibition of human ES5 cell growth in a cell viability assay.

ES6 = type: functional, cell-based; settings: Homo sapiens;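 also: growth inhibition of human ES6 cells, read out with a cell viability assay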
Description: SANGER: Inhibition of human ES6 cell growth in a cell viability assay.

ES7 = type: functional, cell-based, Homo sapiens;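 also: growth inhibition of cultured human ES7 cells, read out as cell viability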
Description: SANGER: Inhibition of human ES7 cell growth in a cell viability assay.

EW-3 = type: functional, cell-based, Homo sapiens;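 also: cell viability assay read-out, IC50 reflects inhibition of growth of the EW-3 cells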
Description: SANGER: Inhibition of human EW-3 cell growth in a cell viability assay.

GOTO = type: functional, cell-based, Homo sapiens;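 also: growth inhibition of GOTO cells, read out by a cell viability assay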
Description: SANGER: Inhibition of human GOTO cell growth in a cell viability assay.

HCC2218 = type: functional, cell-based, Homo sapiens;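 also: cell viability assay read-out, with IC50 given as the concentration that inhibits growth of the cell line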
Description: SANGER: Inhibition of human HCC2218 cell growth in a cell viability assay.

HEL = type: functional, cell-based, Homo sapiens;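 also: growth inhibition of HEL cells, read out with a cell viability assay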
Description: SANGER: Inhibition of human HEL cell growth in a cell viability assay.

IST-MES1 = type: functional, cell-based, Homo sapiens;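 also: growth inhibition of IST-MES1 cells, measured with a cell viability assay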
Description: SANGER: Inhibition of human IST-MES1 cell growth in a cell viability assay.

K562 = type: functional, cell-based, Homo sapiens
Description: SANGER: Inhibition of human K-562 cell growth in a cell viability assay.

KS-1 = type: functional, cell-based; settings: Homo sapiens;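 also: growth inhibition of KS-1 cells, read out with a cell viability assay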
Description: SANGER: Inhibition of human KS-1 cell growth in a cell viability assay.

L-363 = type: functional, cell-based, Homo sapiens
Description: SANGER: Inhibition of human L-363 cell growth in a cell viability assay.

L-428 = type: functional, cell-based, Homo sapiens
Description: SANGER: Inhibition of human L-428 cell growth in a cell viability assay.

LS-1034 = type: functional, cell-based, Homo sapiens
Description: SANGER: Inhibition of human LS-1034 cell growth in a cell viability assay.

LU-139 = type: functional, cell-based, Homo sapiens
Description: SANGER: Inhibition of human LU-139 cell growth in a cell viability assay.

MFM-223 = type: functional, cell-based, Homo sapiens
Description: SANGER: Inhibition of human MFM-223 cell growth in a cell viability assay.

MOLT-4 = type: functional, cell-based, Homo sapiens;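 also: growth inhibition of MOLT-4 cells, determined with a cell viability readout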
Description: SANGER: Inhibition of human MOLT-4 cell growth in a cell viability assay.

MPP-89 = type: functional, cell-based, Homo sapiens;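 also: growth inhibition of human MPP-89 cells, read out with a cell viability assay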
Description: SANGER: Inhibition of human MPP-89 cell growth in a cell viability assay.

MV4-11 = type: functional, cell-based, Homo sapiens, MV-4-11;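 also: cell viability readout measuring growth inhibition of human MV-4-11 cells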
Description: SANGER: Inhibition of human MV-4-11 cell growth in a cell viability assay.

Mo = type: functional, cell-based, Homo sapiens
Description: SANGER: Inhibition of human Mo-T cell growth in a cell viability assay.

NB10 = type: functional, cell-based, Homo sapiens;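 also: growth inhibition of NB10 cells, read out by a cell viability assay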
Description: SANGER: Inhibition of human NB10 cell growth in a cell viability assay.

NB13 = type: functional, cell-based, Homo sapiens;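 also: cell viability readout measuring growth inhibition of human NB13 cells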
Description: SANGER: Inhibition of human NB13 cell growth in a cell viability assay.

NB69 = type: functional, cell-based, Homo sapiens;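 also: growth inhibition of NB69 cells, determined by a cell viability assay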
Description: SANGER: Inhibition of human NB69 cell growth in a cell viability assay.

NCI-H1299 = type: functional, cell-based; settings: Homo sapiens;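 also: growth inhibition of human NCI-H1299 cells, read out by a cell viability assay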
Description: SANGER: Inhibition of human NCI-H1299 cell growth in a cell viability assay.

NCI-H1304 = type: functional, cell-based, Homo sapiens;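 also: growth inhibition of the cancer cell line, measured in a cell viability assay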
Description: SANGER: Inhibition of human NCI-H1304 cell growth in a cell viability assay.

NCI-H1648 = type: functional, cell-based, Homo sapiens;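 also: cell viability assay measuring inhibition of NCI-H1648 cell growth, from the Sanger screening data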
Description: SANGER: Inhibition of human NCI-H1648 cell growth in a cell viability assay.

NCI-H1770 = type: functional, cell-based, Homo sapiens;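 also: growth inhibition of NCI-H1770 cells determined with a viability readout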
Description: SANGER: Inhibition of human NCI-H1770 cell growth in a cell viability assay.

NCI-H1838 = type: functional, cell-based, Homo sapiens;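 also: growth inhibition of NCI-H1838 cells, determined with a cell viability readout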
Description: SANGER: Inhibition of human NCI-H1838 cell growth in a cell viability assay.

NCI-H720 = type: functional, cell-based, Homo sapiens;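 also: growth inhibition of human NCI-H720 cells determined by a cell viability assay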
Description: SANGER: Inhibition of human NCI-H720 cell growth in a cell viability assay.

NH-12 = type: functional, cell-based, Homo sapiens;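 also: growth inhibition of NH-12 cells, read out with a cell viability assay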
Description: SANGER: Inhibition of human NH-12 cell growth in a cell viability assay.

NOS-1 = type: functional, cell-based, Homo sapiens;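 also: growth inhibition of the human NOS-1 cell line, read out with a cell viability assay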
Description: SANGER: Inhibition of human NOS-1 cell growth in a cell viability assay.

OS-RC-2 = type: functional, cell-based, Homo sapiens;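 also: growth inhibition of human OS-RC-2 cells, measured by a cell viability assay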
Description: SANGER: Inhibition of human OS-RC-2 cell growth in a cell viability assay.

SF-126 = type: functional, cell-based, Homo sapiens;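 also: growth inhibition of human SF126 cells, read out with a cell viability assay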
Description: SANGER: Inhibition of human SF126 cell growth in a cell viability assay.

SF-539 = type: functional, cell-based, Homo sapiens;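 also: Read-out is a cell viability assay, with IC50 reflecting inhibition of cell growth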
Description: SANGER: Inhibition of human SF539 cell growth in a cell viability assay.

SK-LMS-1 = type: functional, cell-based, Homo sapiens;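 also: growth inhibition of human SK-LMS-1 cells, read out with a cell viability assay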
Description: SANGER: Inhibition of human SK-LMS-1 cell growth in a cell viability assay.

SK-MEL-2 = type: functional, cell-based, Homo sapiens;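 also: growth inhibition of human SK-MEL-2 cells measured with a cell viability assay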
Description: SANGER: Inhibition of human SK-MEL-2 cell growth in a cell viability assay.

SK-NEP-1 = type: functional, cell-based, Homo sapiens;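 also: growth inhibition of human SK-NEP-1 cells, read out by a cell viability assay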
Description: SANGER: Inhibition of human SK-NEP-1 cell growth in a cell viability assay.

SK-PN-DW = type: functional, cell-based, Homo sapiens;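 also: growth inhibition measured with a viability assay on these cells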
Description: SANGER: Inhibition of human SK-PN-DW cell growth in a cell viability assay.

SW684 = type: functional, cell-based, Homo sapiens; settings: read-out: IC50;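 also: growth inhibition of human SW684 cells, measured by a cell viability assay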
Description: SANGER: Inhibition of human SW684 cell growth in a cell viability assay.

TE-1 = type: functional, cell-based, Homo sapiens
Description: SANGER: Inhibition of human TE-1 cell growth in a cell viability assay.

697 = type: functional, cell-based, Homo sapiens
Description: SANGER: Inhibition of human 697 cell growth in a cell viability assay.

ATN-1 = type: functional, cell-based, Homo sapiens;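 also: growth inhibition of human ATN-1 cells, read out with a cell viability assay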
Description: SANGER: Inhibition of human ATN-1 cell growth in a cell viability assay.

BB49-HNC = type: functional, cell-based, Homo sapiens;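 also: cell viability assay read-out, reported as inhibition of BB49-HNC cell growth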
Description: SANGER: Inhibition of human BB49-HNC cell growth in a cell viability assay.

TE-12 = type: functional, cell-based, Homo sapiens;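 also: growth inhibition of TE-12 cells, read out by a cell viability assay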
Description: SANGER: Inhibition of human TE-12 cell growth in a cell viability assay.

TE-6 = type: functional, cell-based, Homo sapiens;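 also: growth inhibition of TE-6 cells, read out with a cell viability assay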
Description: SANGER: Inhibition of human TE-6 cell growth in a cell viability assay.

TK-10 = type: functional, cell-based, Homo sapiens;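 also: growth inhibition of TK-10 cells, read out in a cell viability assay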
Description: SANGER: Inhibition of human TK10 cell growth in a cell viability assay.

CGTH-W-1 = type: functional, cell-based, Homo sapiens;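 also: growth inhibition of human CGTH-W-1 cells measured by cell viability assay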
Description: SANGER: Inhibition of human CGTH-W-1 cell growth in a cell viability assay.

A704 = type: functional, cell-based; settings: Homo sapiens;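 also: growth inhibition of human A704 cells, read out with a cell viability assay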
Description: SANGER: Inhibition of human A704 cell growth in a cell viability assay.

Nc1ccccc1NC(=O)c1ccc(CNC(=O)OCc2cccnc2)cc1 [ENTINOSTAT] gave an IC50 (COLO-829; Homo sapiens, COLO-829) of 1540 nM, an IC50 (D-263MG; Homo sapiens, D-263MG) greater than 5000 nM and an IC50 (DU-4475; Homo sapiens, DU-4475) of 587 nM. The IC50 (ES5; Homo sapiens, ES5) was greater than 5000 nM, the IC50 (ES6) was 964 nM and the IC50 (ES7; Homo sapiens, ES7) was 1800 nM. It also gave an IC50 (EW-3; Homo sapiens, EW-3) greater than 5000 nM, an IC50 (GOTO; Homo sapiens, GOTO) of 951 nM and an IC50 (HCC2218; Homo sapiens, HCC2218) of 1170 nM. For the same molecule, the IC50 (HEL; Homo sapiens, HEL) was 313 nM, the IC50 (IST-MES1; Homo sapiens, IST-MES1) was 3180 nM and the IC50 (K562; Homo sapiens, K562) was 1390 nM. It also gave an IC50 (KS-1) of 881 nM, an IC50 (L-363; Homo sapiens, L-363) of 567 nM and an IC50 (L-428; Homo sapiens, L-428) of 2490 nM. The IC50 (LS-1034; Homo sapiens, LS-1034) was greater than 5000 nM, the IC50 (LU-139; Homo sapiens, LU-139) was 335 nM and the IC50 (MFM-223; Homo sapiens, MFM-223) was greater than 5000 nM. For the same molecule, the IC50 (MOLT-4; Homo sapiens, MOLT-4) was 1030 nM, the IC50 (MPP-89; Homo sapiens, MPP-89) was 2330 nM and the IC50 (MV4-11; Homo sapiens, MV4-11) was 530 nM. For the same molecule, the IC50 (Mo; Homo sapiens, Mo) was greater than 5000 nM, the IC50 (NB10; Homo sapiens, NB10) was 2410 nM and the IC50 (NB13; Homo sapiens, NB13) was 668 nM. For the same molecule, the IC50 (NB69; Homo sapiens, NB69) was 598 nM, the IC50 (NCI-H1299) was greater than 5000 nM and the IC50 (NCI-H1304; Homo sapiens, NCI-H1304) was 3010 nM. It also gave an IC50 (NCI-H1648; Homo sapiens, NCI-H1648) greater than 5000 nM, an IC50 (NCI-H1770; Homo sapiens, NCI-H1770) greater than 5000 nM and an IC50 (NCI-H1838; Homo sapiens, NCI-H1838) greater than 5000 nM. The IC50 (NCI-H720; Homo sapiens, NCI-H720) was 2170 nM, the IC50 (NH-12; Homo sapiens, NH-12) was greater than 5000 nM and the IC50 (NOS-1; Homo sapiens, NOS-1) was 196 nM. The IC50 (OS-RC-2; Homo sapiens, OS-RC-2) was 968 nM, the IC50 (SF-126; Homo sapiens, SF-126) was 2330 nM and the IC50 (SF-539; Homo sapiens, SF-539) was 196 nM. It also gave an IC50 (SK-LMS-1; Homo sapiens, SK-LMS-1) greater than 5000 nM, an IC50 (SK-MEL-2; Homo sapiens, SK-MEL-2) greater than 5000 nM and an IC50 (SK-NEP-1; Homo sapiens, SK-NEP-1) of 1200 nM. It also gave an IC50 (SK-PN-DW; Homo sapiens, SK-PN-DW) of 978 nM, an IC50 (SW684; Homo sapiens, SW684) greater than 5000 nM and an IC50 (TE-1; Homo sapiens, TE-1) of 553 nM. It also gave an IC50 (697; Homo sapiens) of 99.8 nM, an IC50 (ATN-1; Homo sapiens, ATN-1) of 306 nM and an IC50 (BB49-HNC; Homo sapiens, BB49-HNC) of 2920 nM. The IC50 (TE-12; Homo sapiens, TE-12) was 3520 nM, the IC50 (TE-6; Homo sapiens, TE-6) was greater than 5000 nM and the IC50 (TK-10; Homo sapiens, TK-10) was 1830 nM. For the same molecule, the IC50 (CGTH-W-1; Homo sapiens, CGTH-W-1) was 2420 nM.

With CC(C)C[C@@H](C=O)NC(=O)[C@H](CC(C)C)NC(=O)[C@H](CC(C)C)NC(=O)OCc1ccccc1 [MG-132] (Cbz-Leu-Leu-Leu-aldehyde) the IC50 (COLO-829; colo-829) was 243 nM and > 1000 nM, the IC50 (D-263MG; d-263mg) was 160 nM and > 1000 nM and the IC50 (DU-4475; du-4475) was 197 nM and > 1000 nM. For the same molecule, the IC50 (ES5; es5) was greater than 1000 nM, the IC50 (ES7; es7) was 897 nM and > 1000 nM and the IC50 (EW-3; ew-3) was greater than 1000 nM. For the same molecule, the IC50 (GOTO; Homo sapiens, GOTO) was greater than 1000 nM, the IC50 (GOTO; goto) was greater than 1000 nM and the IC50 (HCC2218; Homo sapiens, HCC2218) was greater than 1000 nM. For the same molecule, the IC50 (HCC2218; hcc2218) was greater than 1000 nM, the IC50 (HEL; hel) was 185 nM and > 1000 nM and the IC50 (IST-MES1; ist-mes1) was greater than 1000 nM. It also gave an IC50 (K562; k562) greater than 1000 nM, an IC50 (L-363; Homo sapiens, L-363) greater than 1000 nM and an IC50 (L-363; l-363) greater than 1000 nM. The IC50 (L-428; Homo sapiens, L-428) was greater than 1000 nM, the IC50 (L-428; l-428) was greater than 1000 nM and the IC50 (LS-1034; ls-1034) was greater than 1000 nM. The IC50 (LU-139; lu-139) was greater than 1000 nM, the IC50 (MFM-223; mfm-223) was greater than 1000 nM and the IC50 (MOLT-4; molt-4) was greater than 1000 nM. The IC50 (MPP-89; mpp-89) was greater than 1000 nM, the IC50 (MV4-11; mv-4-11) was greater than 1000 nM and the IC50 (Mo; mo) was 518 nM and > 1000 nM. The IC50 (NB10; nb10) was greater than 1000 nM, the IC50 (NB13; nb13) was greater than 1000 nM and the IC50 (NB69; nb69) was greater than 1000 nM. For the same molecule, the IC50 (NCI-H1299) was greater than 1000 nM, the IC50 (NCI-H1304; Homo sapiens, NCI-H1304) was greater than 1000 nM and the IC50 (NCI-H1304; nci-h1304) was greater than 1000 nM. It also gave an IC50 (NCI-H1648; Homo sapiens, NCI-H1648) greater than 1000 nM, an IC50 (NCI-H1648; nci-h1648) greater than 1000 nM and an IC50 (NCI-H1770; nci-h1770) greater than 1000 nM. The IC50 (NCI-H1838; nci-h1838) was greater than 1000 nM, the IC50 (NCI-H720; nci-h720) was greater than 1000 nM and the IC50 (NH-12; nh-12) was greater than 1000 nM. For the same molecule, the IC50 (NOS-1; nos-1) was greater than 1000 nM, the IC50 (OS-RC-2; os-rc-2) was 480 nM and > 1000 nM and the IC50 (SF-126; sf-126) was 990 nM and > 1000 nM. The IC50 (SF-539; sf-539) was greater than 1000 nM, the IC50 (SK-LMS-1; sk-lms-1) was 193 nM and > 1000 nM and the IC50 (SK-MEL-2; sk-mel-2) was greater than 1000 nM. The IC50 (SK-NEP-1; sk-nep-1) was greater than 1000 nM, the IC50 (SK-PN-DW; sk-pn-dw) was 232 nM and > 1000 nM and the IC50 (SW684; sw684) was greater than 1000 nM. The IC50 (TE-1; te-1) was 451 nM and > 1000 nM, the IC50 697 was greater than 1000 nM and the IC50 (A704) was 487 nM. The IC50 (ATN-1; atn-1) was greater than 1000 nM, the IC50 (BB49-HNC; bb49-hnc) was 491 nM and > 1000 nM and the IC50 (TE-12; Homo sapiens, TE-12) was greater than 1000 nM. For the same molecule, the IC50 (TE-12; te-12) was greater than 1000 nM, the IC50 (TE-6; te-6) was greater than 1000 nM and the IC50 (TK-10; tk-10) was 254 nM and > 1000 nM. For the same molecule, the IC50 (CGTH-W-1; cgth-w-1) was greater than 1000 nM.
